# Data published in patent publication US8361968B2 (Takeda Pharmaceutical Company Limited, priority 2002, dated 2013).
# Numbered stars: 1 amine (or outer) side, 2 acyl side, 3 side chain; on linkers, the order of the positions; unused ones are H or OH. Square brackets hold non-standard residues; d marks the D form. Peptide text beside a SMILES is read from it. * marks the point of attachment. X12 = CNC(=N)NCCC[C@H](NC(=O)[C@H](CC(C)C)NCCN*)C(=O)N[C@@H](Cc1ccccc1)C(N)=O; X10 = NC(=O)C[C@@H](C(=O)[*:2])N(C[C@@H](N)Cc1ccc(O)cc1)[*:1]; Phe(4-F) = N[C@@H](Cc1ccc(F)cc1)C(=O)O; Arg(Me) = CNC(=N)NCCC[C@H](N)C(=O)O; 4Pal = N[C@@H](Cc1ccncc1)C(=O)O; d4Pal = N[C@H](Cc1ccncc1)C(=O)O; Cha = N[C@@H](CC1CCCCC1)C(=O)O; azaGly = NNC(=O)O
# Target: hOT7T175 (Homo sapiens, UniProt Q969F8, L364H)
# Sequence (Q969F8 whole entry L364H): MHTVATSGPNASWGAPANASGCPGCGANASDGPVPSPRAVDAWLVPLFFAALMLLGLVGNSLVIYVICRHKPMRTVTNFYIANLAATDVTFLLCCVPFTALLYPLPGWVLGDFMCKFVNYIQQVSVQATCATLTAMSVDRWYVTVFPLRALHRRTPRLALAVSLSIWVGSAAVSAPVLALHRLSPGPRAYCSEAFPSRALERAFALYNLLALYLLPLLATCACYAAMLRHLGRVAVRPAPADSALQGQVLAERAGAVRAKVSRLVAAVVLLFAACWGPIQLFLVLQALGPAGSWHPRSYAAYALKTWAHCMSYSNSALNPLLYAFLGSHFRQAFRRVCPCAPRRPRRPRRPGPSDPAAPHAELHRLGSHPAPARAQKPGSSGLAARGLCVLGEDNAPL
# Assay: Intracellular Ca ion level-increasing activity using FLIPR in hOT7T175/CHO
# Format: cell-based
# Design: expressed in transfected cells; host or cells: CHO/dhfr- cells, obtained from ATCC
# Conditions: relative, Metastin (1-54) = 1
row,SMILES,Specific Activity (intracellular Ca ion level-increasing activity)
1,"CNC(=N)NCCC[C@H](NC(=O)[C@H](CC(C)C)NC(=O)NNC(=O)[C@H](Cc1ccccc1)NC(=O)[C@H](CO)NC(=O)[C@H](CC(N)=O)NC(=O)[C@@H](Cc1c[nH]c2ccccc12)NC(=O)[C@H](CC(N)=O)NC[C@@H](N)Cc1ccc(O)cc1)C(=O)N[C@@H](Cc1ccccc1)C(N)=O [Compound No. 300, TyrΨ(CH2NH)Asn-D-Trp-Asn-Ser-Phe-AzaGly-Leu-Arg(Me)-Phe-NH2] (H-[X10][dW]NSF[azaGly]L[Arg(Me)]F-NH2)",5
2,"CNC(=N)NCCC[C@H](NC(=O)[C@H](CC(C)C)NC(=O)NNC(=O)[C@H](Cc1ccccc1)NC(=O)[C@H](CO)NC(=O)[C@H](CC(N)=O)NC(=O)[C@@H](Cc1ccncc1)NC(=O)[C@H](CC(N)=O)NC(=O)[C@H](N)Cc1ccc(O)cc1)C(=O)N[C@@H](Cc1ccccc1)C(N)=O [Compound No. 302, D-Tyr-Asn-D-Pya(4)-Asn-Ser-Phe-AzaGly-Leu-Arg(Me)-Phe-NH2] (H-[dY]N[d4Pal]NSF[azaGly]L[Arg(Me)]F-NH2)",2
3,"CNC(=N)NCCC[C@H](NC(=O)[C@H](CC(C)C)NC(=O)NNC(=O)[C@H](Cc1ccccc1)NC(=O)[C@H](CO)NC(=O)[C@H](CC(N)=O)NC(=O)[C@H](Cc1ccncc1)NC(=O)[C@@H](CC(N)=O)NC(=O)[C@@H](N)Cc1ccc(O)cc1)C(=O)N[C@@H](Cc1ccccc1)C(N)=O [Compound No. 304, Tyr-D-Asn-Pya(4)-Asn-Ser-Phe-AzaGly-Leu-Arg(Me)-Phe-NH2] (H-Y[dN][4Pal]NSF[azaGly]L[Arg(Me)]F-NH2)",3

# Results, then the molecule that gave them:
row,Specific Activity (intracellular Ca ion level-increasing activity),SMILES
1,2,"CNC(=N)NCCC[C@H](NC(=O)[C@H](CC(C)C)NC(=O)NNC(=O)[C@H](Cc1ccccc1)NC(=O)[C@H](CO)NC(=O)[C@H](CC(N)=O)NC(=O)[C@H](CC1CCCCC1)NC(=O)[C@@H](CC(N)=O)NC(=O)[C@H](N)Cc1ccncc1)C(=O)N[C@@H](Cc1ccccc1)C(N)=O [Compound No. 306, D-Pya(4)-D-Asn-Cha-Asn-Ser-Phe-AzaGly-Leu-Arg(Me)-Phe-NH2] (H-[d4Pal][dN][Cha]NSF[azaGly]L[Arg(Me)]F-NH2)"
2,1,"CNC(=N)NCCC[C@H](NC(=O)[C@H](CC(C)C)NCCNC(=O)[C@H](Cc1ccccc1)NC(=O)[C@H](CO)NC(=O)[C@H](CC(N)=O)NC(=O)[C@H](Cc1c[nH]c2ccccc12)NC(=O)[C@H](CC(N)=O)NC(=O)[C@H](N)Cc1ccc(O)cc1)C(=O)N[C@@H](Cc1ccccc1)C(N)=O [Compound No. 307, D-Tyr-Asn-Trp-Asn-Ser-Phe-GlyΨ(CH2NH)Leu-Arg(Me)-Phe-NH2] (H-[dY]NWNSF-X12)"
3,3,CC(C)C[C@H](NC(=O)CNC(=O)[C@H](Cc1ccccc1)NC(=O)[C@H](CO)NC(=O)[C@H](CC(N)=O)NC(=O)[C@H](Cc1c[nH]c2ccccc12)NC(=O)[C@H](CC(N)=O)NC(=O)[C@@H](N)Cc1ccc(O)cc1)C(=O)N[C@@H](CCNC(=N)N)C(=O)N[C@@H](Cc1ccccc1)C(N)=O [Compound No. 310]
4,1,"CNC(=N)NCCC[C@H](NC(=O)[C@H](CC(C)C)NC(=O)NNC(=O)[C@H](Cc1ccccc1)NC(=O)[C@H](CO)NC(=O)[C@H](CC(N)=O)NC(=O)[C@H](Cc1ccncc1)NC(=O)[C@@H](CC(N)=O)NC(=O)[C@H](N)Cc1ccc(O)cc1)C(=O)N[C@@H](Cc1ccc(F)cc1)C(N)=O [Compound No. 317, D-Tyr-D-Asn-Pya(4)-Asn-Ser-Phe-AzaGly-Leu-Arg(Me)-Phe(4F)-NH2] (H-[dY][dN][4Pal]NSF[azaGly]L[Arg(Me)][Phe(4-F)]-NH2)"
5,5,"CNC(=N)NCCC[C@H](NC(=O)[C@H](CC(C)C)NC(=O)NNC(=O)[C@H](Cc1ccccc1)NC(=O)[C@H](CO)NC(=O)[C@H](CC(N)=O)NC(=O)[C@H](Cc1c[nH]c2ccccc12)NC(=O)[C@H](CC(N)=O)NC(=O)[C@H](N)Cc1ccc(O)cc1)C(=O)N[C@@H](Cc1ccc(F)cc1)C(N)=O [Compound No. 318, D-Tyr-Asn-Trp-Asn-Ser-Phe-AzaGly-Leu-Arg(Me)-Phe(4F)-NH2]"
